{"source": "paper PMC9429723", "about": "“Hypertoxic self-assembled peptide with dual functions of glutathione depletion and biosynthesis inhibition for selective tumor ferroptosis and pyroptosis” (Journal of Nanobiotechnology, 2022)", "key": {"[1]": {"system": "A549 cells", "type": "cell-based, human", "protocol": "(§1) All cells (8 × 10^3 per well) were plated in 96-well plates at 37 °C and 5% CO2 overnight. Then cells were treated with gradient concentrations of NSBSO, NCSBSO, NS or BSO for another 12 h or 24 h. Afterward, cck-8 reagent was added to each well. And the 96-well plates were incubated for another 3 h at 37 °C and followed by determining the absorbance at 450 nm utilizing a microplate reader (Thermo, USA). IC50 values of NSBSO against different cells were conducted using GraphPad Prism 8 software. Additionally, in order to determine the cell cytotoxicity of NSBSO after treatment with various inhibitors or GSH, the cells were pretreated with inhibitors for 24 h or GSH (0, 1, 2.5 and 5 mM) for 12 h before NSBSO treatment. The human breast adenocarcinoma cell line (MCF-7 cells), mouse melanoma cell line (B16 cells), human lung cancer line (A549 cells), mouse breast cancer cell line (4T1 cells), murine colon carcinoma cell line (CT26 cells) and mouse embryonic fibroblast cell line (3T3 cells) were used for research. MCF-7 and 3T3 cells were cultured in DMEM culture medium supplemented with 10% FBS and 1% penicillin/streptomycin (pen/strep) at 37 °C in 5% CO2. B16, A549, 4T1 and CT26 cells were cultured in RPMI Medium 1640 basic supplemented with 10% FBS and 1% penicillin/streptomycin (pen/strep) at 37 °C in 5% CO2."}, "[2]": {"system": "MCF-7 cells", "type": "cell-based, human", "protocol": "as §1"}, "[3]": {"system": "3T3 cells", "type": "cell-based, mouse", "protocol": "as §1"}, "[4]": {"system": "4T1 cells", "type": "cell-based, mouse", "protocol": "as §1"}, "[5]": {"system": "B16 cells", "type": "cell-based, mouse", "protocol": "as §1"}, "[6]": {"system": "CT26 cells", "type": "cell-based, murine", "protocol": "as §1"}, "[7]": {"assay": "in vitro", "conditions": "serum"}, "[8]": {"system": "B16 cells", "assay": "Rescue of NSBSO-induced cell death by inhibitors, B16 cells", "type": "cell-based, mouse", "conditions": "inhibitor pretreated 24 h, NSBSO 12 h, cck-8", "protocol": "(§2) All cells (8 × 10^3 per well) were plated in 96-well plates at 37 °C and 5% CO2 overnight. Then cells were treated with gradient concentrations of NSBSO, NCSBSO, NS or BSO for another 12 h or 24 h. Afterward, cck-8 reagent was added to each well. And the 96-well plates were incubated for another 3 h at 37 °C and followed by determining the absorbance at 450 nm utilizing a microplate reader (Thermo, USA). IC50 values of NSBSO against different cells were conducted using GraphPad Prism 8 software. Additionally, in order to determine the cell cytotoxicity of NSBSO after treatment with various inhibitors or GSH, the cells were pretreated with inhibitors for 24 h or GSH (0, 1, 2.5 and 5 mM) for 12 h before NSBSO treatment."}, "[9]": {"system": "GPX4", "assay": "Intracellular GPX4 activity assay in 4T1 cell lysates", "type": "cell-based, mouse", "conditions": "10 μM, 6 h, t-BuOOH as substrate", "protocol": "4T1 cells were all seeded in the density of 1 × 10^6 cells per dish in 6-cm dishes for 24 h. Upon completion of incubation with different treatments for 6 h, the cell lysates were collected and quantified by a detergent compatible bradford protein assay kit. The intracellular GPX activity was measured through a cellular glutathione peroxidase assay kit on the basis of the manufacturer’s instructions."}, "[10]": {"system": "4T1 cells", "assay": "Rescue of NSBSO-induced cell death by inhibitors, 4T1 cells", "type": "cell-based, mouse", "protocol": "as §2"}}, "note": "Like-named read-outs stand apart in the source and are kept apart here. *: point of attachment. Cbz = O=C(OCc1ccccc1)*; CH2F = FC*"}
{"molecule": "CCCCS(=N)(=O)CC[C@H](NC(=O)[C@H](CC(=O)O)NC(=O)[C@@H](NC(=O)[C@H](CCC(=O)O)NC(=O)[C@H](CC(=O)O)NC(=O)CCC(=O)NCCSSCCNC(=O)[C@H](Cc1ccc(O)cc1)NC(=O)[C@@H](Cc1ccccc1)NC(=O)[C@@H](Cc1ccccc1)NC(=O)Cc1ccc2ccccc2c1)C(C)C)C(=O)O", "note": "(stereo partly drawn) [NSBSO, Nap-^DF^DFY-CS-DEVD-BSO]", "values": [{"measurement": "IC50", "setting": "[1]; 12 h", "value": 7.56, "unit": "µM"}, {"measurement": "IC50", "setting": "[1]; 24 h", "value": 1.22, "unit": "µM"}, {"measurement": "IC50", "setting": "[2]; 12 h", "value": 4430, "unit": "nM"}, {"measurement": "IC50", "setting": "[2]; 24 h", "value": 1070, "unit": "nM"}, {"measurement": "IC50", "setting": "[3]; 12 h", "value": "> 100", "unit": "µM"}, {"measurement": "IC50", "setting": "[3]; 24 h", "value": "> 100", "unit": "µM"}, {"measurement": "cytotoxicity", "setting": "[4]", "value": "concentration-dependent cytotoxicity"}, {"measurement": "IC50", "setting": "[4]; 12 h", "value": 10.9, "unit": "µM"}, {"measurement": "IC50", "setting": "[4]; 24 h", "value": 4.74, "unit": "µM"}, {"measurement": "cytotoxicity", "setting": "[5]", "value": "concentration-dependent cytotoxicity"}, {"measurement": "IC50", "setting": "[5]; 12 h", "value": 1980, "unit": "nM"}, {"measurement": "IC50", "setting": "[5]; 24 h", "value": 844, "unit": "nM"}, {"measurement": "IC50", "setting": "[6]; 12 h", "value": "> 100", "unit": "µM"}, {"measurement": "IC50", "setting": "[6]; 24 h", "value": "> 100", "unit": "µM"}, {"measurement": "remaining at 2 h, 400 μM", "setting": "[7]", "value": "> 80", "unit": "%"}, {"measurement": "remaining at 24 h, 400 μM", "setting": "[7]", "value": "> 50", "unit": "%"}]}
{"molecule": "Ac-DEVD-CHO", "values": [{"measurement": "rescue of NSBSO-induced cell death", "setting": "[8]", "value": "better rescued"}]}
{"molecule": "CCCCS(=N)(=O)CC[C@H](N)C(=O)O", "note": "(stereo partly drawn) [BSO, L-buthionine-sulfoximine, reference compound]", "values": [{"measurement": "cytotoxicity", "setting": "[4]", "value": "did not show obvious cytotoxicity"}, {"measurement": "cytotoxicity", "setting": "[5]", "value": "did not show obvious cytotoxicity"}, {"measurement": "activity of GPX4 (rate of NADPH oxidation, 340 nm)", "setting": "[9]", "value": "suppressed to varying degrees"}]}
{"molecule": "Cbz-Val-Ala-Asp-CH2F", "values": [{"measurement": "rescue of NSBSO-induced cell death", "setting": "[10]; NSBSO 5 μM, 24 h, cck-8", "value": "scarcely rescued"}]}
{"molecule": "CCCCS(=N)(=O)CC[C@H](NC(=O)[C@H](CC(=O)O)NC(=O)[C@@H](NC(=O)[C@H](CCC(=O)O)NC(=O)[C@H](CC(=O)O)NC(=O)CCC(=O)NCCCCCCNC(=O)[C@H](Cc1ccc(O)cc1)NC(=O)[C@@H](Cc1ccccc1)NC(=O)[C@@H](Cc1ccccc1)NC(=O)Cc1ccc2ccccc2c1)C(C)C)C(=O)O", "note": "(stereo partly drawn) [NCBSO, Nap-^DF^DFY-HDA-DEVD-BSO]", "values": [{"measurement": "cytotoxicity", "setting": "[4]", "value": "did not show obvious cytotoxicity"}, {"measurement": "cytotoxicity", "setting": "[5]", "value": "did not show obvious cytotoxicity"}]}
{"molecule": "CC(C)[C@H](NC(=O)[C@H](CCC(=O)O)NC(=O)[C@H](CC(=O)O)NC(=O)CCC(=O)NCCSSCCNC(=O)[C@H](Cc1ccc(O)cc1)NC(=O)[C@@H](Cc1ccccc1)NC(=O)[C@@H](Cc1ccccc1)NC(=O)Cc1ccc2ccccc2c1)C(=O)N[C@@H](CC(=O)O)C(=O)O", "note": "[NS, Nap-^DF^DFY-CS-DEVD]", "values": [{"measurement": "cytotoxicity", "setting": "[4]", "value": "concentration-dependent cytotoxicity"}, {"measurement": "cytotoxicity", "setting": "[5]", "value": "concentration-dependent cytotoxicity"}]}
{"molecule": "CCOC(=O)c1ccc(NC2CCCCC2)c(N)c1", "note": "[Fer-1, ferrostatin-1]", "values": [{"measurement": "rescue of NSBSO-induced cell death", "setting": "[10]; Fer-1 0.5 μM pretreated 24 h before NSBSO treatment, cck-8, n = 4", "value": 42.13, "unit": "%"}, {"measurement": "rescue of NSBSO-induced cell death", "setting": "[8]", "value": "did not markedly alleviate"}]}
